Assay results: patent US20050137806A1 (priority 2003, published 2005)
Where a name gives a salt, the structure may show the parent alone.

Test system: a cell line
Type: cell-based
Conditions: for mitotic index as a function of drug concentration (dose response path): FIG. 2A, drugs in aqueous DMSO, multiple concentrations, fraction of cells in mitosis
Protocol: As shown, four different drugs were tested against a cell line at multiple concentrations. Taxol, one of the drugs, was tested twice. For each drug at each concentration various images were taken to extract various cellular features by image analysis. In some cases, basic extracted features are analyzed using appropriate classification algorithm to provide higher-level biological classifications such as mitotic state. In FIG. 2A, the feature is “mitotic index” (a numerical classification of the cells an image on basis of the fraction of them in mitosis) shown as the dependent variable with respect to concentration in a two-dimensional plot.
All drugs were provided in an aqueous solution of dimethyl sulfoxide (DMSO). As a negative control, the cells were exposed to aqueous DMSO without any drug present. Normally, an aqueous DMSO solution is used as the solvent for delivering drugs to samples. The feature values extracted for cells exposed to the DMSO control are shown as signatures 207.
Another approach replaces the concentration variable (generally a level of stimulus variable) with another variable that can depict a trajectory but is relatively independent of potency. In other words, the chosen feature space is independent (or largely independent) of dose (concentration). […] This new variable is a measure of the number of cells that survived the treatment. Because the variable changes only when the drug begins taking effect (regardless of absolute concentration), it effectively puts all curves on the same potency scale. Using this plot, one can more rigorously classify Taxol and Cytochalasin A as having the same mechanism of action (based on mitotic index as the dependent variable).

Compound: CC[C@@H]1/C=C/C=C/C[C@H](C)[C@H](O)[C@](C)(O)C(=O)[C@H](C)[C@@H](O)[C@H](C)C(=O)[C@H](C)[C@@H](O)[C@H](C)/C=C/C(=O)O[C@H]2[C@@H](C)[C@@H](CC1)O[C@@]1(CC[C@@H](C)[C@@H](C[C@H](C)O)O1)[C@@H]2C [Oligomycin A]
- mitotic index as a function of drug concentration (dose response path): very little impact on mitotic index until relatively high concentrations are used

Compound: CC(=O)O[C@H]1C(=O)[C@@]2(C)[C@H]([C@H](OC(=O)c3ccccc3)[C@]3(O)C[C@H](OC(=O)[C@H](O)[C@@H](NC(=O)c4ccccc4)c4ccccc4)C(C)=C1C3(C)C)[C@]1(OC(C)=O)CO[C@@H]1C[C@@H]2O [Taxol]
- mitotic index as a function of drug concentration (dose response path): S-shaped
- mitotic index versus number of cells (response path comparison) (FIG. 2B, concentration not displayed, number of cells that survived treatment as axis): act similarly to the tested concentrations of Vinblastine Sulfate

Compound: C=C1[C@@H](C)[C@H]2[C@H](Cc3ccccc3)NC(=O)[C@]23OC(=O)/C=C/C(=O)CCC[C@@H](C)C/C=C/[C@H]3[C@@H]1O [Cytochalasin A]
- mitotic index as a function of drug concentration (dose response path): S-shaped

Compound: CC[C@]1(O)C[C@@H]2CN(CCc3c([nH]c4ccccc34)[C@@](C(=O)OC)(c3cc4c(cc3OC)N(C)[C@H]3[C@@](O)(C(=O)OC)[C@H](OC(C)=O)[C@]5(CC)C=CCN6CC[C@]43[C@@H]65)C2)C1 [Vinblastine Sulfate]
- mitotic index as a function of drug concentration (dose response path): relatively high numerical value of mitotic index at various concentrations
